Experiments:
[1] = target: T1, Muscarinic acetylcholine receptor M1 (Rattus norvegicus, UniProt P08482); assay: Binding affinity against Muscarinic receptor M1 in rat brain using [3H]-PZ (pirenzepine) radioligand at a concentration of 1 nM; type: tissue-based
T1 sequence (P08482 whole entry): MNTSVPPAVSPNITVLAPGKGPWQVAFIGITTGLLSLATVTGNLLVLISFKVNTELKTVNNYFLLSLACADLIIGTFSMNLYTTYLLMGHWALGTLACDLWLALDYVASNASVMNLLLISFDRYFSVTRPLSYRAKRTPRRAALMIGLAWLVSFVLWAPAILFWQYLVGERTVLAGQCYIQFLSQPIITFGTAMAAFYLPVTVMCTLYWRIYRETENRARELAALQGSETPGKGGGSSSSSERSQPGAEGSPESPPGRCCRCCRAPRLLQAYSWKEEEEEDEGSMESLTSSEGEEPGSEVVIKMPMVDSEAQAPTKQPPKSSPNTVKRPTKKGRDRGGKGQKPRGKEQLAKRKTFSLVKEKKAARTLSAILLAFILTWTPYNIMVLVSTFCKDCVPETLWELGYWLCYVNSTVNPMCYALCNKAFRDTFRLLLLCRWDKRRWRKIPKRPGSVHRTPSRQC

[2] = target: T2, Muscarinic acetylcholine receptor M2 (Rattus norvegicus, UniProt P10980); assay: Binding affinity against Muscarinic receptor M2 in rat brain using [3H]QNB (quinuclidinyl benzylate) radioligand at a concentration of 0.12 nM; type: tissue-based
T2 sequence (P10980 whole entry): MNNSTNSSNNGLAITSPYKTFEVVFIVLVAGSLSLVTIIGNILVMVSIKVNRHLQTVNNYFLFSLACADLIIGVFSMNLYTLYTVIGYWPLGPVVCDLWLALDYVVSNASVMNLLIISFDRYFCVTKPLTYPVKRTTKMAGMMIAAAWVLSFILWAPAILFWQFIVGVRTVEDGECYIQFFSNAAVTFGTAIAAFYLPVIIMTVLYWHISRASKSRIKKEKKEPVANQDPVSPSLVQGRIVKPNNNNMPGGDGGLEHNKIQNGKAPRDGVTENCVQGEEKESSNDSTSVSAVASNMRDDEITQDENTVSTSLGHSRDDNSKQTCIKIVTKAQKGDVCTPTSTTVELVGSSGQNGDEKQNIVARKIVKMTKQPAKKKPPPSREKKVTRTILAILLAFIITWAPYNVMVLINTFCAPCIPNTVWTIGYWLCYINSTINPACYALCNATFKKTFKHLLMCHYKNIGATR

[3] = target: T2, Muscarinic acetylcholine receptor M2; assay: Muscarinic receptor M2 in rat heart using [3H]QNB (quinuclidinyl benzylate) radioligand as a M2 non-selective muscarinic receptor antagonist at a concentration of 0.12 nM
[4] = target: Muscarinic acetylcholine receptor; assay: Compound was assessed for the binding affinity against muscarinic receptor subtypes in rat brain using [3H]OXO-M radioligand as a muscarinic receptor agonist at a concentration of 0.2 nM; type: tissue-based
[5] = Selectivity for was determined by the displacement of [3H]PZ in rat brain preparations; expressed as ratio of M1/M2; type: tissue-based

| SMILES | IC50 [1] [nM] | IC50 [2] [nM] | IC50 [3] [nM] | IC50 [4] [nM] | Selectivity ratio [5] |
| --- | --- | --- | --- | --- | --- |
| O=C1CCON1CC#CCN1CCCC1 | 78 | 2800 | 215 | 1.6 | – |
| O=C1CCCN1CC#CCN1CCCC1 [OXOTREMORINE] | 100 | 2000 | 84 | 2 | – |
| CN(C)CC#CCN1OCCC1=O | 7100 | 101000 | 1380 | 23 | 41.2 |
| C[N+](C)(C)CC#CCN1OCCC1=O | 1300 | 17400 | 74 | 0.8 | 140 |
| C(#CCN1CCCC1)COC1=NOCC1 | 412 | 8600 | 233 | 4 | – |

— ChEMBL document CHEMBL1129906, “Synthesis and binding affinity of new muscarinic ligands structurally related to oxotremorine” (Bioorg Med Chem Lett, 1997)
